Experimental data from PMC4731795, “New α-glucosidase inhibitors from marine algae-derived Streptomyces sp. OUCMDZ-3434” (Scientific Reports, 2016).

Key:
[1] = test system: murine small intestinal IEC-6 cells; experiment: Cytotoxic assay by MTT method; type: cell-based; conditions: for selectivity index (SI): CC50 (IEC-6) relative to IC50 (α-glucosidase)
Protocol: (§1) The cytotoxicity on murine small intestinal IEC-6 cells were assayed by MTT (3-[4,5-dimethyl thiazol-2-yl]-2,5-diphenyl tetrazolium bromide) method. The IEC-6 cells were cultured in Dulbecco’s modified Eagle’s medium (DMEM) supplemented with 5% fetal bovine serum (FBS) under a humidified atmosphere of 5% CO2 and 95% air at 37 °C. Cell suspension, 100 μL, at a density of 2 × 10^4 cell mL^−1 was plated in 96-well microtiter plates and exposed to different concentrations of compounds in triplicate for 72 h. The initial concentrations of compounds were 2 mg/mL in DMSO, and then were diluted into 625, 125, 25, 5, and 1 μg/mL with RPMI-1640 medium, respectively. The experiments were divided into blank control, testing compounds and the positive control groups, and each group was set up three parallels. Then, 10 μL of PBS containing MTT (final concentration: 0.5 mg/mL) was added to each well. After 4 h incubation at 37 °C, the supernatant was removed and 200 μL of DMSO was added to each well to solubilize the formazan crystals. After vigorous shaking, absorbance values were measured in a microplate reader (Bio-Rad, USA) at 570 nm. The cytotoxicity was represented at these concentrations as [(ODblank − ODdrug)/ODblank × 100%]. The CC50 value, defined as the compound concentration necessary to induce cell cytotoxicity by 50%, was calculated by SPSS (Statistical Product and Service Solutions) v19.0 software.

[2] = Cytotoxic assay by MTT method; type: cell-based, murine; conditions: murine, IEC-6 small intestinal cells, MTT, 72 h exposure; read-out: CC50, cytotoxicity on IEC-6 cell line
Protocol: as §1

α-glucosidase [3] = experiment: α-Glucosidase inhibitory effect assay with pNPG as substrate; type: biochemical; conditions: 37 °C, 15 min, pH 6.8, read-out: IC50, α-glucosidase inhibition
Protocol: The inhibitory effects were assayed as described preciously. The sample was dissolved in sodium phosphate buffer (PBS, pH 6.8) at three concentrations. A volume of 10 μL of the sample solution, 20 μL of PBS and 20 μL of […] p-nitrophenyl-α-D-glucopyranoside (pNPG) solution (in phosphate buffer) were mixed in a 96-well microplate and incubated at 37 °C for 5 min. […] After incubating at 37 °C for 15 min, the absorbance at 405 nm was recorded by a Spectra max 190 micro plate reader (Molecular Devices Inc.).

α-glucosidase [4] = experiment: Kinetics of α-glucosidase inhibition (Lineweaver-Burk plot analysis); type: biochemical; conditions: for mode of α-glucosidase inhibition: Lineweaver-Burk plot; for Ki: pNPG 0.5–2.0 mM, 37 °C, 15 min
Protocol: Optimal amounts of compounds 1 and 2 used were determined based on the enzyme inhibitory activity assay.

Structure (SMILES): O=c1cc(O)cc(-c2c(-c3ccccc3)cc(O)c3c(O)cccc23)o1 [Compound 5, wailupemycin G]
- selectivity index (SI) [1]: 12.3
- CC50 at 72 h [2]: 2950 µM
- IC50 (α-glucosidase [3]): 239 µM

Structure (SMILES): O=C1CC(O)(c2ccccc2)C(c2cc(O)cc(=O)o2)c2cccc(O)c21 (stereo not shown) [Compound 3, Wailupemycin D]
- selectivity index (SI) [1]: 2.8
- CC50 at 72 h [2]: 2750 µM
- IC50 (α-glucosidase [3]): 989 µM

Structure (SMILES): O=C1C[C@](O)(c2ccccc2)[C@H](c2cc(O)c(Cc3c(O)cc(-c4c(-c5ccccc5)cc(O)c5c(O)cccc45)oc3=O)c(=O)o2)c2cccc(O)c21 [Compound 2, Wailupemycin I]
- selectivity index (SI) [1]: 158.5
- CC50 at 72 h [2]: 1320 µM
- IC50 (α-glucosidase [3]): 8.3 µM
- mode of α-glucosidase inhibition (α-glucosidase [4]): competitive
- Ki (α-glucosidase [4]): 6 µM

Structure (SMILES): O=C1C[C@](O)(c2ccccc2)[C@@H](c2cc(O)c(Cc3c(O)cc(-c4c(-c5ccccc5)cc(O)c5c(O)cccc45)oc3=O)c(=O)o2)c2cccc(O)c21 [Compound 1, Wailupemycin H]
- selectivity index (SI) [1]: 14.2
- CC50 at 72 h [2]: 280 µM
- IC50 (α-glucosidase [3]): 19.7 µM
- mode of α-glucosidase inhibition (α-glucosidase [4]): competitive
- Ki (α-glucosidase [4]): 16.8 µM

Structure (SMILES): O=C1CC(O)(c2ccccc2)C(c2cc(O)cc(=O)o2)c2cccc(O)c21 (stereo not shown) [Compound 4, Wailupemycin E]
- selectivity index (SI) [1]: 7.6
- CC50 ([1]; MTT, 72 h exposure, read-out: CC50, cytotoxicity on IEC-6 cell line): 2980 µM
- IC50 (α-glucosidase [3]): 392 µM
